Reference: patent US6358995B1, “Carboxylic acid derivatives having fused rings” (Eisai Co., Ltd., priority 1996, dated 2002)

Key:
Assay in all cases: Transcription accelerating activity through RARs (PLAP reporter in COS-1 cells)
Format in all cases: cell-based
Settings in all cases: relative to ED30 of all-trans retinoic acid = 1, ED30 = concentration giving 30% of activity induced by 1 μM all-trans retinoic acid
[1] = biological target: T1, RAR-α (Homo sapiens, UniProt P10276)
T1 construct: expressed in transfected cells; host or cells: COS-1 (African green monkey kidney cells), transient lipofection
T1 sequence (P10276 1-462): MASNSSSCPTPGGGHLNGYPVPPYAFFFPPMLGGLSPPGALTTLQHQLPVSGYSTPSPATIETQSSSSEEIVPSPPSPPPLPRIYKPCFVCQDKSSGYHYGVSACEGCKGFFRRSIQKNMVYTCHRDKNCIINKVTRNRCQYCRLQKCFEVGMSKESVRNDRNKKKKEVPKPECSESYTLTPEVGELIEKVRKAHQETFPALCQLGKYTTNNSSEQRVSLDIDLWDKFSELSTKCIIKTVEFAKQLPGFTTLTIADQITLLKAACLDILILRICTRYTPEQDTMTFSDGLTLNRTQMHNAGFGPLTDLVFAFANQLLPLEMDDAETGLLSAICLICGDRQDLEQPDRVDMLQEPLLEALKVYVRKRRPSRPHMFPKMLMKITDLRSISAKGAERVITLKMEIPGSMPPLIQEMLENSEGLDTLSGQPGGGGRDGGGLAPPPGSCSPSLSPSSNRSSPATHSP
From the text: (§1) Measurement of the Activities of Accelerating Trans-cription Through RARs
(§2) Human RAR Expression Vectors and secretory alkaline phosphatase (PLAP) gene vectors (PLAP vectors) containing in a state integrated into the upstream a competent sequence whose expression is […] through binding with RAR depending on a ligand were temporarily transferred into COS-1 (African green monkey kidney cells), and the PLAP which had been produced depending on a ligand and secreted into a culture medium was analyzed by the chemiluminescence method to determine the transcription-accelerating activity of each compound. Further, the selectivity of each compound among RARs was determined by comparing the transcription accelerating activities of the compound for the receptors with each other.
(§3) On a 60-mm culture dish were scattered 2.5×10^4 COS-1 cells. Four days after, human RAR α, β and γ expression vectors and PLAP vectors were transferred into the cells each in an amount of 4 μg by the lipofection method. Another day after, the resulting cells were recovered, and put on a 96-well culture plate in an amount of 2×10^4 per unit well. Four hours after, the cells were put on a medium containing charcoal-treated fetal bovine serum, followed by the addition of a dilution of all-trans retinoic acid or a test compound. After the lapse of 36 hours, the supernatant was recovered and the resulting samples were treated at 65° C. for 10 minutes to eliminate the non-specific activity. 15 μl of each sample was mixed with 60 μl of a 28 mM sodium carbonate buffer(pH10), followed by the addition of 75 μl of Smilight (trade name, a product of Sumitomo Metal Industries, Ltd., substrate for chemiluminescence). The resulting mixture was reacted at 37° C. for 30 minutes and the intensity of luminescence was determined. The compounds which will be described below induced the transcription activities of RARs dependently on the concentration.

[2] = biological target: T2, RAR-γ (Homo sapiens, UniProt P13631)
T2 construct: expressed in transfected cells; host or cells: COS-1 (African green monkey kidney cells), transient lipofection
T2 sequence (P13631 1-454): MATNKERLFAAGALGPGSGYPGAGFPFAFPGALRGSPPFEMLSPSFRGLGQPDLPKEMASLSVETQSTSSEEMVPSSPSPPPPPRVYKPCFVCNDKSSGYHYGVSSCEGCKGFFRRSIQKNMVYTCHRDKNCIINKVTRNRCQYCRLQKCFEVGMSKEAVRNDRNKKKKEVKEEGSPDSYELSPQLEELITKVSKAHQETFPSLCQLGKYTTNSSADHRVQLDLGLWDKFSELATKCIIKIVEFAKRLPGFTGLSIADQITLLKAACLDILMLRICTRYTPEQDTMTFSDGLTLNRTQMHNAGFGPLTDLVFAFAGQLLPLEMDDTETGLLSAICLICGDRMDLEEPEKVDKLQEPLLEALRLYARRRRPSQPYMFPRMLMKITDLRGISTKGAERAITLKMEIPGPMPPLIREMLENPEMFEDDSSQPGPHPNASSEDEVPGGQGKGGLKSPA
From the text: as §1, §2, §3

[3] = biological target: T3, RAR-β (Homo sapiens, UniProt P10826)
T3 construct: expressed in transfected cells; host or cells: COS-1 (African green monkey kidney cells), transient lipofection
T3 sequence (P10826 1-455): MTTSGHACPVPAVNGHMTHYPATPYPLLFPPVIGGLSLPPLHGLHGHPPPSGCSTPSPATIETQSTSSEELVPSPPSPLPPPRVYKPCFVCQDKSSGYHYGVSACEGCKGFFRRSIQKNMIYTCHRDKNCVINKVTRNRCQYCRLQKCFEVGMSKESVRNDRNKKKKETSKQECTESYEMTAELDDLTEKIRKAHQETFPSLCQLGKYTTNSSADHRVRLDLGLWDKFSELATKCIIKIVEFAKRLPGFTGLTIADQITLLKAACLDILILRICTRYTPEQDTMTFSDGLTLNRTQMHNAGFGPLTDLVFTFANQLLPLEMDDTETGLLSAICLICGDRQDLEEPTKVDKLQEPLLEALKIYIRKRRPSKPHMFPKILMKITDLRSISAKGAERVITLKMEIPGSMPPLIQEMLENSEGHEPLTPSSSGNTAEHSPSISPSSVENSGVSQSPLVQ
From the text: as §1, §2, §3

Structure (SMILES)	Transcription accelerating activity Relative ED30 RAR-α [1]	Transcription accelerating activity Relative ED30 RAR-γ [2]	Transcription accelerating activity Relative ED30 RAR-β [3]
CCc1cc(Cl)cc2cc(-c3ccc(-c4ccc(C(=O)O)cc4)[nH]3)oc12 [Example 23, 4-{2-[5-(5-Chloro-7-ethylbenzofuran-2-yl)pyrrolyl]}benzoic acid]	0.40	330	67
Cc1cc(C)c2oc(-c3ccc(-c4ccc(C(=O)O)cc4)[nH]3)cc2c1 [Example 50, 4-{2-[5-(5,7-Dimethylbenzofuran-2-yl)pyrrolyl]}benzoic acid]	0.38	710	280
Cc1ccc(C)c2sc(-c3ccc(-c4ccc(C(=O)O)cc4)[nH]3)cc12 [Example 77, 4-{2-[5-(4,7-Dimethylbenzothiophen-2-yl)pyrrolyl]}benzoic acid]	0.35	130	65
Cc1ccc(Cl)c2oc(-c3ccc(-c4ccc(C(=O)O)cc4)[nH]3)cc12 [Example 53, 4-{2-[5-(7-Chloro-4-methylbenzofuran-2-yl)pyrrolyl]}benzoic acid]	0.17	430	26
CCc1cccc2cc(-c3ccc(-c4ccc(C(=O)O)cc4)[nH]3)oc12 [Example 55, 4-{2-[5-(7-Ethylbenzofurn-2-yl)pyrrolyl]}benzoic acid]	0.20	120	31
Cc1ccc(C)c2c1C=C(c1ccc(-c3ccc(C(=O)O)cc3)[nH]1)CO2 [Example 127, 4-{2-[5-(5,8-Dimethyl-2H-chromen-3-yl)pyrrolyl]}benzoic acid]	1.8	3600	240
Cc1ccc(Cl)c2sc(-c3ccc(-c4ccc(C(=O)O)cc4)[nH]3)cc12 [Example 75, 4-{2-[5-(7-Chloro-4-methylbenzothiophen-2-yl)pyrrolyl]}benzoic acid]	0.80	2000	150
O=C(O)c1ccc(-c2ccc(-c3cc4c(F)ccc(F)c4o3)[nH]2)cc1 [Example 27, 4-{2-[5-(4,7-Difluorobenzofuran-2-yl)pyrrolyl]}benzoic acid]	0.63	1000	170
Cc1cc(C)c2cc(-c3ccc(-c4ccc(C(=O)O)cc4)[nH]3)oc2c1C [Example 113, 4-{2-[5-(4,6,7-Trimethylbenzofuran-2-yl)pyrrolyl]}benzoic acid]	0.80	150	24
Cc1ccc(C)c2c(C)c(-c3ccc(-c4ccc(C(=O)O)cc4)[nH]3)oc12 [Example 47, 4-{2-[5-(3,4,7-Trimethylbenzofuran-2-yl)pyrrolyl]}benzoic acid]	0.80	41	2.4
O=C(O)c1ccc(-c2ccc(-c3cc4c(Cl)cccc4o3)[nH]2)cc1 [Example 60, 4-{2-[5-(4-Chlorobenzofuran-2-yl)pyrrolyl]}benzoic acid]	0.72	750	110
O=C(O)c1ccc(-c2ccc(-c3cc4c(F)ccc(Cl)c4o3)[nH]2)cc1 [Example 42, 4-{2-[5-(4-Fluoro-7-chlorobenzofuran-2-yl)pyrrolyl]}benzoic acid]	0.33	790	91
CCc1cc(F)cc2cc(-c3ccc(-c4ccc(C(=O)O)cc4)[nH]3)oc12 [Example 25, 4-{2-[5-(5-Fluoro-7-ethylbenzofuran-2-yl)pyrrolyl]}benzoic acid]	0.65	63	62
O=C(O)c1ccc(-c2ccc(-c3cc4cccc(Cl)c4o3)[nH]2)cc1 [Example 15, 4-{2-[5-(7-Chlorobenzofuran-2-yl)pyrrolyl]}benzoic acid]	3.1	2100	940
CCc1cccc2ccc(-c3ccc(-c4ccc(C(=O)O)cc4)[nH]3)cc12 [Example 7, 4-{2-[5-(8-Ethylnaphthalen-2-yl)pyrrolyl]}benzoic acid]	0.9	190	36
O=C(O)c1ccc(-c2ccc(-c3cc4c(Cl)ccc(Cl)c4o3)[nH]2)cc1 [Example 14, 4-{2-[5-(4,7-Dichlorobenzofuran-2-yl)pyrrolyl]}benzoic acid]	1.0	1400	160
CCc1ccc(C)c2cc(-c3ccc(-c4ccc(C(=O)O)cc4)[nH]3)oc12 [Example 17, 4-{2-[5-(4-Methyl-7-ethylbenzofuran-2-yl)pyrrolyl]}benzoic acid]	0.26	120	24
Cc1cccc2c1C=C(c1ccc(-c3ccc(C(=O)O)cc3)[nH]1)CO2 [Example 129, 4-{2-[5-(5-Methyl-2H-chromen-3-yl)pyrrolyl]}benzoic acid]	4.4	2400	1050
